From patent US20080287430A1, “Furan Compounds Useful As Ep1 Receptor Antagonists” (priority 2005, published 2008)
Structures can show the parent of a compound that is named as a salt.

How the values were obtained:
[1] = system: gastric lesions in rats; conditions: lesions induced by taurocholate acid, aspirin or indomethacin, J Pharmacol Exp Ther 1992, 263(1), 374-380; cited from earlier work
[2] = molecular target: T1, human EP1 receptor (Homo sapiens, UniProt P34995); assay: Binding assay for the human prostanoid EP1 receptor (competition with [3H]-PGE2); conditions: binding to human EP1 receptor, [3H]-PGE2 competition, CHO-K1 cell membranes; averages of a number of experiments; read-out: pIC50 value (converted)
T1 construct: expressed in transfected cells; host or cells: CHO-K1
T1 sequence (P34995 1-402): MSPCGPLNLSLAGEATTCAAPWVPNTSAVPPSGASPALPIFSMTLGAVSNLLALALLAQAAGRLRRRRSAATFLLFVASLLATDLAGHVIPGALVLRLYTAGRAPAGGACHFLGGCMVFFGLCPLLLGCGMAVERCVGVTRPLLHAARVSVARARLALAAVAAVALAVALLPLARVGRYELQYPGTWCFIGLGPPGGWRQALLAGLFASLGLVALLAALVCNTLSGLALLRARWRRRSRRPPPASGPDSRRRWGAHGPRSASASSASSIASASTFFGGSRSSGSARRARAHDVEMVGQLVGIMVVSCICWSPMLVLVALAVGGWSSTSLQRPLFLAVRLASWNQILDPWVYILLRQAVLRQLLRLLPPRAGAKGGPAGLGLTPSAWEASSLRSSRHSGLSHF
Description: Competition assay using [^3H]-PGE2.
Compound potencies are determined using a radioligand binding assay. In this assay compound potencies are determined from their ability to compete with tritiated prostaglandin E2 ([^3H]-PGE2) for binding to the human EP1 receptor.
This assay utilises Chinese hamster ovary-K1 (CHO-K1) cells into which a stable vector containing the EP1 cDNA has previously been transfected. Cells are cultured in suitable flasks containing culture medium such as DMEM:F-12 supplemented with 10% v/v foetal calf serum, 2 mM L-glutamine, 0.25 mg/ml geneticin, 10 μg/ml puromycin and 10 μM indomethacin.
Cells are detached from the culture flasks by incubation in calcium and magnesium free phosphate buffered saline containing 1 mM disodium ethylenediaminetetraacetic acid (Na2EDTA) and 10 μM indomethacin for 5 min. The cells are isolated by centrifugation at 250×g for 5 mins and suspended in an ice cold buffer such as 50 mM Tris, 1 mM Na2EDTA, 140 mM NaCl, 10 μM indomethacin (pH 7.4). The cells are homogenised using a Polytron tissue disrupter (2×10 s burst at full setting), centrifuged at 48,000×g for 20 mins and the pellet containing the membrane fraction is washed (optional) three times by suspension and centrifugation at 48,000×g for 20 mins. The final membrane pellet is suspended in an assay buffer such as 10 mM 2-[N-morpholino]ethanesulphonic acid, 1 mM Na2EDTA, 10 mM MgCl2 (pH 6). Aliquots are frozen at −80° C. until required.
For the binding assay the cell membranes, competing compounds and [^3H]-PGE2 (3 nM final assay concentration) are incubated in a final volume of 100 μl for 30 min at 30° C. All reagents are prepared in assay buffer. Reactions are terminated by rapid vacuum filtration over GF/B filters using a Brandell cell harvester. The filters are washed with ice cold assay buffer, dried and the radioactivity retained on the filters is measured by liquid scintillation counting in Packard TopCount scintillation counter.
The data are analysed using non linear curve fitting techniques to determine the concentration of compound producing 50% inhibition of specific binding (IC50).

[3] = molecular target: T1, human EP1 receptor; assay: human EP1 calcium mobilisation assay; format: cell-based; conditions: human EP1, PGE2-induced calcium mobilisation in CHO-K1 cells; free bases or sodium salts; averages of a number of experiments; read-out: functional pKi value (converted)
Summary of the method: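 CHO-K1 cells stably expressing human EP1, loaded with Fluo-4 after 24 h at 37° C; compounds added before PGE2 challenge. Inhibition of PGE2-induced [Ca2+]i rise read by FLIPR fluorescence; pIC50 from curve fitting of half-maximal inhibition.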

[4] = system: rat model of chronic constriction injury; conditions: Anesthesia and Analgesia 2001, 93, 1012-7; cited from earlier work
[5] = system: rodent model of post-operative pain; conditions: Anesthesia and Analgesia 2001, 92, 233-238; cited from earlier work

SMILES	gastric lesions [1]	IC50 [2] [µM]	Ki [3] [µM]	hyperalgesia and allodynia [4]	mechanical hyperalgesia [5]
O=C(O)Cc1ccc(CCNS(=O)(=O)c2ccc(Cl)cc2)cc1 [BM 13505]	inhibit gastric lesions	–	–	–	–
CC(C)COc1ccc(Cl)cc1Cc1ccc(-c2nc3ccc(N4CCOCC4)cc3[nH]2)o1 [Example 112, 2-[5-({5-Chloro-2-[(2-methylpropyl)oxy]-phenyl}methyl)-2-furanyl]-5-(4-morpholinyl)-1H-benzimidazoledihydrochloride]	–	≤ 0.01	< 1	–	–
CC(C)COc1ccc(Cl)cc1Cc1ccc(-c2nc3ccc(N(C)C)cc3[nH]2)o1 [Example 113, 2-[5-({5-Chloro-2-[(2-methylpropyl)oxy]-phenyl}methyl)-2-furanyl]-N,N-dimethyl-1H-benzimidazol-5-aminedihydrochloride]	–	≤ 0.01	< 1	–	–
CC(C)COc1ccc(Cl)cc1Cc1ccc(-c2nc3ccc(CCO)cc3[nH]2)o1 [Example 115, 2-{2-[5-({5-Chloro-2-[(2-methylpropyl)oxy]-phenyl}methyl)-2-furanyl]-1H-benzimidazol-5-yl}ethanolhydrochloride]	–	≤ 0.01	< 1	–	–
CC(C)COc1ccc(Cl)cc1Cc1ccc(-c2nc3cnccc3[nH]2)o1 [Example 117, 2-[5-({5-Chloro-2-[(2-methylpropyl)oxy]phenyl}-methyl)-2-furanyl]-1H-imidazo[4,5-c]pyridine]	–	≤ 0.01	< 1	–	–
CC(C)COc1ccc(Cl)cc1Cc1ccc(-c2nc3ccc(CO)cc3[nH]2)o1 [Example 132]	–	≤ 0.01	< 1	–	–
OCc1ccc2nc(-c3ccc(Cc4cc(Cl)ccc4OCc4ccccc4)o3)[nH]c2c1 [Example 133, {2-[5-({5-Chloro-2-[(phenylmethyl)oxy]phenyl}methyl)-2-furanyl]-1H-benzimidazol-5-yl}methanol]	–	≤ 0.01	< 1	–	–
CC(C)COc1ccc(Cl)cc1Cc1ccc(-c2nc3nc(Br)cnc3[nH]2)o1 [Example 136, 5-Bromo-2-[5-({5-chloro-2-[(2-methylpropyl)oxy]phenyl}methyl)-2-furanyl]-1H-imidazo[4,5-b]pyrazine hydrochloride]	–	≤ 0.01	> 1	–	–
CC(C)COc1ccc(Cl)cc1Cc1ccc(-c2nc3ccc(CN(C)C)cc3[nH]2)o1 [Example 142, ({2-[5-({5-Chloro-2-[(2-methylpropyl)oxy]-phenyl}methyl)-2-furanyl]-1H-benzimidazol-5-yl}methyl)dimethyl-amine dihydrochloride]	–	≤ 0.01	< 1	–	–
CC(C)COc1ccc(Cl)cc1Cc1ccc(-c2nc3ccc(CN4CCCC4)cc3[nH]2)o1 [Example 143, 2-[5-({5-Chloro-2-[(2-methylpropyl)oxy]-phenyl}methyl)-2-furanyl]-5-(1-pyrrolidinylmethyl)-1H-benzimidazoledihydrochloride]	–	≤ 0.01	< 1	–	–
CC(C)COc1ccc(Cl)cc1Cc1ccc(-c2nc3ccc(CN4CCN(C)CC4)cc3[nH]2)o1 [Example 145, 2-[5-({5-Chloro-2-[(2-methylpropyl)oxy]-phenyl}methyl)-2-furanyl]-5-[(4-methyl-1-piperazinyl)methyl]-1H-benzimidazoletrihydrochloride]	–	≤ 0.01	< 1	–	–
CCN1CCN(Cc2ccc3nc(-c4ccc(Cc5cc(Cl)ccc5OCC(C)C)o4)[nH]c3c2)CC1 [Example 146, 2-[5-({5-Chloro-2-[(2-methylpropyl)oxy]-phenyl}methyl)-2-furanyl]-5-[(4-ethyl-1-piperazinyl)methyl]-1H-benzimidazoletrihydrochloride]	–	≤ 0.01	< 1	–	–
CC(C)COc1ccc(Cl)cc1Cc1ccc(-c2nc3ccc(CN4CCCCC4)cc3[nH]2)o1 [Example 147, 2-[5-({5-Chloro-2-[(2-methylpropyl)oxy]-phenyl}methyl)-2-furanyl]-5-(1-piperidinylmethyl)-1H-benzimidazoledihydrochloride]	–	≤ 0.01	< 1	–	–
COCCN(C)Cc1ccc2nc(-c3ccc(Cc4cc(Cl)ccc4OCC(C)C)o3)[nH]c2c1 [Example 148, N-({2-[5-({5-Chloro-2-[(2-methylpropyl)oxy]-phenyl}methyl)-2-furanyl]-1H-benzimidazol-5-yl}methyl)-N-methyl-2-(methyloxy)ethanaminedihydrochloride]	–	≤ 0.01	< 1	–	–
CC(C)COc1ccc(Cl)cc1Cc1ccc(-c2nc3ccc(CN(C)CCC#N)cc3[nH]2)o1 [Example 149, 3-[({2-[5-({5-Chloro-2-[(2-methylpropyl)oxy]-phenyl}methyl)-2-furanyl]-1H-benzimidazol-5-yl}methyl)(methyl)-amino]propanenitriledihydrochloride]	–	≤ 0.01	< 1	–	–
CC(C)COc1ccc(Cl)cc1Cc1ccc(-c2nc3ccc(CN(C)C(C)C)cc3[nH]2)o1 [Example 151, N-({2-[5-({5-Chloro-2-[(2-methylpropyl)oxy]-phenyl}methyl)-2-furanyl]-1H-benzimidazol-5-yl}methyl)-N-methyl-2-propanaminedihydrochloride]	–	≤ 0.01	< 1	–	–
CC(C)COc1ccc(Cl)cc1Cc1ccc(-c2nc3ccc(CNCCO)cc3[nH]2)o1 [Example 156, 2-[({2-[5-({5-Chloro-2-[(2-methylpropyl)oxy]-phenyl}methyl)-2-furanyl]-1H-benzimidazol-5-yl}methyl)amino]-ethanol]	–	≤ 0.01	< 1	–	–
CC(C)COc1ccc(Cl)cc1Cc1ccc(-c2nc3ccc(CCN4CCN(C)CC4)cc3[nH]2)o1 [Example 162, 2-[5-({5-Chloro-2-[(2-methylpropyl)oxy]-phenyl}methyl)-2-furanyl]-5-[2-(4-methyl-1-piperazinyl)ethyl]-1H-benzimidazoletrihydrochloride]	–	≤ 0.01	< 1	–	–
CNCc1ccc2[nH]c(-c3ccc(Cc4cc(Cl)ccc4OCC(C)C)o3)nc2c1 [Example 166, ({2-[5-({5-Chloro-2-[(2-methylpropyl)oxy]phenyl}methyl)-2-furanyl]-1H-benzimidazol-5-yl}methyl)methylamine dihydrochloride]	–	≤ 0.01	< 1	–	–
Cc1cc(Cl)ccc1S(=O)(=O)NC[C@H]1C2CCC(CC2)[C@@H]1/C=C\CCCC(=O)O [ONO-8711]	–	–	–	reduces hyperalgesia and allodynia	inhibits mechanical hyperalgesia
